How the values were obtained:
Caco-2 cells [1] = experiment: Reactive oxygen species in Caco-2 cells (DCFH-DA); assay type: cell-based, human; settings: 20 μM, FGF or PDGF 10 ng/ml 60 min
Method: Caco-2 cells were plated in a 24-well plate at a density of 1.5×10^4 cells/well in DMEM and then serum-starved at 60-70% confluence in the absence and presence of 20 μM sorbinil or tolrestat for overnight in phenol red-free DMEM supplemented with 0.1% FBS. Cells were then pre-incubated for 30 min with the ROS-sensitive fluorophore 2′,7′-dichlorofluorescein diacetate (DCFH-DA), which is taken up and oxidized to the fluorescent dichlorofluorescein by intracellular ROS. After incubation with DCFH-DA, the cells were exposed to FGF or PDGF 10 ng/ml for 60 min and fluorescence was measured with a CytoFluorII fluorescence plate reader (PerSeptive Biosystems, Inc., Framingham, Mass.) at excitation of 485 nm and emission of 528 nm.

isolated mouse hearts = experiment: Isolated mouse hearts (Langendorff preparation) challenged with LPS; settings: perfusion with sorbinil in the presence of LPS
A549 cells = experiment: Western blot of cell cycle regulatory proteins in A549 cells; assay type: cell-based, human; settings: various concentrations
Method: To examine expression of any of Cox-1, Cox-2, phospho-PKC-2, GAPDH, E2F1, Cyclin D1, Cyclin E, and iNOS proteins, Western blot analyses were carried by known methods (15). Equal amounts of protein from cell extracts were subjected to 12% SDS-PAGE followed by transfer of proteins to nitrocellulose filters, probing with the indicated antibodies, and the antigen-antibody complex was detected by enhanced chemiluminescence (Pierce, Piscataway, N.J., USA).

HT29 cells = experiment: PGE2 assay in HT29 cells; assay type: cell-based; settings: inhibitor alone
Method: Caco-2 cells were plated in 6 well plates at a density of 2×10^5 cells/well. After 24 hours, the medium was replaced with fresh medium containing 0.1% serum with or without, sorbinil (20 μM) followed by treatment with either 10 ng/ml BFGF or PDGF, for another 24 h. HT29 cells were plated in 6 well plate at a density of 2×10^5 cells/well. After 24 hours, medium was replaced with serum-free medium with or without, sorbinil or zopolrestat (20 μM) followed by treatment with either EGF (5 ng/ml) or BFGF (10 ng/ml) for another 24 h. The medium from each cell lines was collected from each well and analyzed for PGE2 by using an Enzyme Immuno Assay kit according to the manufacturer's instructions (Cayman Chemical Co., Inc.).
Briefly, 50 μl of diluted standard/sample were pipetted into a pre-coated goat polyclonal anti-mouse IgG 96-well plate. Aliquots (50 μl) of a PGE2 monoclonal antibody and PGE2 acetylcholine esterase (AchE) conjugate, (PGE2 tracer) were added to each well and allowed to incubate at 4° C. for 24 h. After incubation, the wells were washed five times with wash buffer containing 0.05% Tween-20, followed by the addition of 200 μl of Ellman's reagent containing acetylthiocholine and 5,5′-dithio-bis-(2-nitrobenzoic acid). Samples were read after 60 min at 412 nm with an ELISA reader. […]

RAW264.7 macrophages = experiment: LPS- and lipid aldehyde-induced signaling in RAW264.7 macrophages; assay type: cell-based; design: HNE and protein-HNE adduct levels: dose or concentration left out as unconfirmed
Method: At the indicated times, cells were harvested for measurement of HNE (FIG. 5A), protein-HNE adducts (FIG. 5B), NF-kB (FIG. 5C), and TNF-a and IL-6 (FIG. 5D) as described in the methods. Cells were growth arrested as described above or transfected with control or AR siRNA oligonucleotides, incubated with GS-HNE-ester, or GS-DHN-ester (1 mM), and harvested for determination of NF-kB (FIG. 5E), membrane-bound total PKC (FIG. 5F).
To determine if GS-DHN serves as a cellular sensor of ROS-induced insults, its effects on phosphorylation events upstream of IKK/NF-κB activation in RAW264.7 macrophages was examined.

C57BL/6 mice = experiment: LPS signaling in the heart (NF-kB, AP1, iNOS, kinases); assay type: in vivo, mouse
Excerpt: At the indicated times, NF-kB activation (FIG. 8A), AP1 activation with an electrophoretic mobility shift assay (FIG. 8B), iNOS expression by western blotting (FIG. 8C), or PKC activation with a total PKC assay system (FIG. 8D) (SignaTect, Promega), or phosphorylated forms of the indicated kinases by western blotting (FIG. 8E), was detected. Values are means±SEM (N=4). *P<0.001 versus LPS-treated mice. OD, optical density.
In sorbinil-treated mice, however, activation of NF-κB and AP1 decreased by ˜70% at 2 h, and the levels returned to baseline by 24 h. […] These findings are consistent with the downregulation of inflammatory cytokines and chemokines in the serum and heart upon AR inhibition (FIGS. 8A-8D). […] AR inhibition attenuated the phosphorylation of almost all members of this cascade (FIG. 8D-8E). Thus, AR appears to […] the inflammatory cascade by regulating the activation of NF-κB, thereby protecting against cardiovascular collapse in the setting of overwhelming sepsis.

Caco-2 cells [2] = experiment: Cyclooxygenase activity assay in Caco-2 cells; assay type: cell-based, human; design: dose or concentration left out as unconfirmed; settings: 24 h
Method: For determination of Cox activity growth-arrested Caco-2 cells were treated with either 10 ng/ml BFGF or PDGF in the absence and presence of sorbinil […] for 24 h. The cells were harvested and homogenized in cold (4° C.) buffer containing 0.1M Tris-Hcl, pH 7.8 and 1 mM EDTA and the activity was measured in 96 well plate according to the manufacturer's (Cayman Chemical Co., Inc.) instructions. Briefly, 10 μl of standard/sample were incubated in the presence of arachidonic acid and substrate, N,N, N,N-tetra methyl-p-phenylenediamine (TMPD) in a total reaction volume of 210 μl. The Cox peroxidase activity was measured colorimetrically by monitoring appearance of oxidized TMPD at 590 nm by using ELISA reader.

“(S)-6-fluorospiro[chroman-4,4′-imidazolidine]-2,5′-dione [sorbinil]” was tested, and the “growth factor-induced increase in ROS” value (Caco-2 cells [1]) was “inhibited”, the “time to maximal ±dP/dt, coronary perfusion pressure, coronary vascular resistance, heart rate” value (isolated mouse hearts) was “unaffected” and the “left ventricular pressure (LVP), +dP/dtmax and −dP/dtmax” value (isolated mouse hearts; compared to vehicle) was “significantly increased”. For the same substance, the “E2F-1, Cyclin E and Cyclin D1 expression” value (A549 cells) was “significant inhibition”, the “constitutive levels of PGE2” value (HT29 cells) was “did not inhibit” and the “HNE and protein-HNE adduct levels” value (RAW264.7 macrophages) was “increased”. The “ability of GS-DHN to activate NF-κB” value (RAW264.7 macrophages) was “had no effect”, the “effects of HNE/GS-HNE on IKK-a/b phosphorylation and NF-kB translocation” value (RAW264.7 macrophages) was “significantly blunted” and the “LPS-induced NF-κB and cytokine activation” value (RAW264.7 macrophages; LPS 1 mg/ml, sorbinil 10 mM) was “significantly decreased”. The “cardiac iNOS levels” value (C57BL/6 mice; after LPS) was “increased only slightly”, the “phosphorylation of upstream kinases of NF-κB and AP1 (MAPK, IKK, PKC, PLC) in the heart” value (C57BL/6 mice; after LPS) was “attenuated” and the “decrease of cardiac AP1 activation” value (C57BL/6 mice; at 2 h after LPS) was ~70%. The “decrease of cardiac NF-κB activation” value (C57BL/6 mice; at 2 h after LPS) was ~70%, the “time at which NF-κB and AP1 levels returned to baseline” value (C57BL/6 mice; mouse, in vivo) was ≤ 24 h and the “BFGF and PDGF-induced Cox activity” value (Caco-2 cells [2]) was “abolished”.
